Source: patent US5145783A, “Glyphosate-tolerant 5-endolpyruvyl-3-phosphoshikimate synthase” (Monsanto Company, priority 1990, dated 1992)
Entries after “also recorded” stand apart in the source; their conditions may differ.

Key:
[1] = molecular target: T1, wild-type EPSP synthase of tomato (Solanum lycopersicum, UniProt P10748); assay: EPSP synthase activity assay, extracts of E. coli SR481 harboring pMON9719; type: biochemical
T1 construct: ATG translational initiation codon at the site predicted to be the start of the mature enzyme for in vitro expression in E. Coli; initiator methionine (ATG in an engineered NcoI site) (N); made in house; host or cells: E. coli SR481 (aroA mutant) harboring pMON9719, desalted cell extract
T1 sequence (P10748 77-520): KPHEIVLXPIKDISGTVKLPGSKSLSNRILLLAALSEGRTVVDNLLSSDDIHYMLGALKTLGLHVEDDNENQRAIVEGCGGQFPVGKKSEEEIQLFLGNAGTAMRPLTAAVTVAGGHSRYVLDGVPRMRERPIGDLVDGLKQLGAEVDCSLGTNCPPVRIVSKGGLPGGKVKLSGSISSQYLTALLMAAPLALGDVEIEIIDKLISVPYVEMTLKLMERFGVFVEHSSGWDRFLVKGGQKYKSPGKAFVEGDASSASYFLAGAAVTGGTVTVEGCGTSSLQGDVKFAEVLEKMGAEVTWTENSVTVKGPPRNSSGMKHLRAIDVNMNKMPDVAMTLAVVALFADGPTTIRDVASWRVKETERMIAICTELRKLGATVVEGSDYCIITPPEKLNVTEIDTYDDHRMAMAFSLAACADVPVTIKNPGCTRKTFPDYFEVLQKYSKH
Protocol: E. coli SR481 cells harboring pMON9719 or pMON9729 were grown under conditions which induce the expression of the RecA promoter. The cells were lysed and the extracts were assayed for EPSP synthase activity.
Specifically, the bacterial cell paste was washed twice with 0.9% saline, suspended in buffer (100 mM Tris-HCl, 5 mM dithiothreitol, 1 mM EDTA, 10% glycerol and 1 mM benzamidine HCl) passed twice through the French Pressure Cell at 1000 psi. The cell abstract was separated from the cells by centrifuging at 15,000×gravity for 10 mins. at 5° C. It was desalted using Sephadex G-50 (Pharmacia, Piscataway, N.J.). The desalted extract was assayed for EPSP synthase activity as follows:
To an assay mix (40 μl) containing shikimate-3-phosphate (2 mM), ^14 C-phosphoenolpyruvate (1 mM, 1.2 mCi/mmol), ammonium molybdate (0.1 mM), potassium fluoride (5 mM), in 50 mM HEPES-KOH, pH 7, was added 10 μl of the extract and incubated at 25° C. for 2 mins. […] The radioactivity of the eluent was monitored using a Radiometric Flo-One Beta Instrument. […] The EPSP synthase activity was determined by measurement of the conversion of ^14 C-PEP to ^14 […], both of which are resolved under the above conditions of chromatography. The protein content of the extract was determined by the method of Bradford (Biorad Labs, Calif.). […]

[2] = molecular target: T2, mutant maize pre-EPSP synthase (alanine for second glycine) (Zea mays, UniProt A0A1D6NVZ6, G163A); assay: EPSP synthase activity of in vitro translation product of pMON9960; type: biochemical
T2 construct: full-length cDNA pre-enzyme with chloroplast transit peptide, T7 in vitro transcription, rabbit reticulocyte lysate translation
T2 sequence (A0A1D6NVZ6 entry or part of it G163A): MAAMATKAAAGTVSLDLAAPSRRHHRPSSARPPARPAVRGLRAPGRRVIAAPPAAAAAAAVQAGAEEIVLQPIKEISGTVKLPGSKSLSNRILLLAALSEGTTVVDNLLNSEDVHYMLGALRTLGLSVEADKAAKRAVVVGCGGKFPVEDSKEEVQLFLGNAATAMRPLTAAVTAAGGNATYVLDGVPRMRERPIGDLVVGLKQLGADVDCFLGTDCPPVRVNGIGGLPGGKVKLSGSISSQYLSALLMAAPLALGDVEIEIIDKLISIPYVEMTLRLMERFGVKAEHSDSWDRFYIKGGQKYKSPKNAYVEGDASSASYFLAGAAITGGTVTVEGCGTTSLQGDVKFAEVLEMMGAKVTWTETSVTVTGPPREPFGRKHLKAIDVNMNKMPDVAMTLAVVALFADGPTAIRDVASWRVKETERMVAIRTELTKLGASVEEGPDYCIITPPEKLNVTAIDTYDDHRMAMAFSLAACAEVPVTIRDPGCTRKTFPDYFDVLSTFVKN
Protocol: The linearized plasmid DNA was transcribed in vitro with T7 polymerase essentially as described by Krieg et al. 1984. The standard reaction buffer contained 40 mM Tris-HCl (pH 7.9), 6 mM MgCl2, 10 mM dithiothreitol, 2 mM spermidine, 80 U RNAsin ribuonuclease inhibitor, 0.5 mM each of ATP, GTP, CTP and UTP, in a final reaction volume of 100 μl. The final RNA pellet was resuspended in 20 μl of sterile water and stored at -80° C. A standard translation reaction contained 100 μl of nuclease-treated rabbit reticulocyte lysate, 5.7 μl of a 19-amino acid mixture (minus methionine at 1 mM each, 5.7 μl of RNA (total RNA transcripts derived from 0.63 μg of plasmid DNA), 16 μl RNAsin (20U/μl) ribonuclease inhibitor, and 58.3 μl of [^35 S] methionine (14-15 mCi/ml). The in vitro translation products were stored frozen at -80 ° C.
The products of the in vitro translation were then assayed for EPSP synthase activity as described herein.

[3] = test system: wild-type (non-transformed) petunia plants; assay: Plant response to glyphosate spraying, control plants; type: in vivo; conditions: 0.8 #/acre acid equivalent, isopropylamine salt sprayed
Protocol: Four individual representative transgenic seedlings were selected, grown and tested in the testing procedure described below, along with four individual non-transformed (wild-type) petunia seedlings.
The plants were grown in a growth medium in a growth chamber at 26° C. with 12 hours of light per day. The plants were fertilized weekly with a soluble fertilizer and watered as needed. The plants were sprayed at a uniform and reproducible delivery rate of herbicide by use of an automated track sprayer. The glyphosate solution used was measured as pounds of glyphosate acid equivalents per acre, mixed as the glyphosate isopropylamine salt, with an ionic surfactant.
Four individual wild-type (non-transformed) petunia plants were selected for use as control plants. Four individual transformed plants containing the pMON546 vector were selected by kanamycin resistance as described in Horsch et al. (1985).
The control plants and the transformed plants were sprayed with the isopropylamine salt of glyphosate at the application level listed in Table 2 below; the experimental results obtained are also summarized in Table 2.

[4] = test system: Brassica napus calli transformed with pMON600; assay: Growth of pMON600-transformed calli on glyphosate; type: cell-based; conditions: 0.5 mM glyphosate, three gentamicin resistant calli
E coli 11303 SM-1 = assay: Growth of mutant E. coli in medium containing glyphosate; type: cell-based; conditions: 10 mM or higher glyphosate in the growth medium
Protocol: Cells of E. coli ATCC 11303 were transferred to medium A and incubated at 37° C.
This mutant bacterium was designated E coli 11303 SM-1. The AroA gene encoding EPSP synthase from this mutant bacterium was isolated as follows.

[5] = molecular target: petunia EPSP synthase with alanine for the first glycine of the conserved region (Petunia hybrida, UniProt P11043, G170A); assay: Glyphosate sensitivity of petunia EPSP synthase with alanine for the first glycine of the conserved region; type: biochemical; conditions: alanine inserted for the first glycine of the conserved region
Chain of petunia EPSP synthase with alanine for the first glycine of the conserved region (P11043 73-516 G170A): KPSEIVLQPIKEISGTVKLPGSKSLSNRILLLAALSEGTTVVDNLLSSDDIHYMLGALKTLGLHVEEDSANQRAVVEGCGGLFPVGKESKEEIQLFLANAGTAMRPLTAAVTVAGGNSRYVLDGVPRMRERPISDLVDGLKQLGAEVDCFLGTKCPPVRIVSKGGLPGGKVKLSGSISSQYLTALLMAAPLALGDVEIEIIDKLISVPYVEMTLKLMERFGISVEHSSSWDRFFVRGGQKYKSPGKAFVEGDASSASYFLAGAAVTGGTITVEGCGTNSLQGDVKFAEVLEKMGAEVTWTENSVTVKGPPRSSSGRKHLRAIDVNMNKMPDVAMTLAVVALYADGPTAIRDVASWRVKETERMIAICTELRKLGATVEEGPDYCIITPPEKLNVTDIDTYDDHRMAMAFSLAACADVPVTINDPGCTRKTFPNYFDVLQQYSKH
Description: The EPSP synthase sequences shown in FIG. 2 represent a broad evolutionary range of source materials for EPSP synthases. […] However, those skilled in the art will recognize that a particular EPSP synthase may be produced by and isolated from another source material which may not have the exact sequence of the conserved region.

Structure (SMILES): O=C(O)CNCP(=O)(O)O [glyphosate, N-phosphonomethylglycine]
- IC50 [1]: 12 µM
- inhibition of EPSP synthase activity ([2]; 1 mM glyphosate, product of pMON9960): only slightly inhibited
- EPSP synthase activity in the presence of glyphosate ([2]; 100 mM glyphosate, product of pMON9960): still showing detectable activity
- inhibition at 10000 µM ([2]; read-out: inhibition of EPSP synthase activity): 25%
- Visual Appearance [3]: completely dead; also recorded: killed
- callus growth on glyphosate [4]: capable of growth
- growth in the presence of glyphosate (E coli 11303 SM-1): could grow rapidly
- change in glyphosate sensitivity versus wild-type petunia EPSP synthase [5]: no attendant changes in glyphosate sensitivity
